Experimental data reported in PubChem BioAssay AID2060905 (Molecular Pharmacology Branch, DTP, NCI, 2025).

System: 282377-053-R-J1-PDC complex spheroid viability
Experiment: Anticancer human tumor 282377-053-R-J1-PDC patient-derived colon adenocarcinoma cell line growth inhibition [RAS]
Details: for IC50: curve of first compound; for viability, T/C: stronger effect = lower value
Excerpt: RAS pathway inhibitors in Combinations in Complex Spheroids
A high-throughput screen of multi-cell type tumor spheroids was designed to identify active combinations of RAS pathway inhibitors and targeted small molecules. Complex spheroids include a stromal component modeled by human endothelial cells (HUVEC) and fibroblasts modeled by human mesenchymal stem cells (MSCs). The concentration ranges selected for each drug and investigational agent were based upon clinically achievable concentrations if the clinical Cmax of the agent was known.
Compounds. The drugs and investigational agents: abemaciclib (NSC768073), cobimetinib (NSC768068), divarasib (GDC6063, NSC841802), docetaxel (NSC628503), GDC-1971 (RLY-1971, NSC841576), gemcitabine (NSC613327), inavolisib (NSC800729), ipatasertib (NSC767898), KB-0742 (NSC834161), MRTX-1133 (NSC836407), osimertinib (NSC779217), RMC-4630 (NSC839698), RMC-6236 (NSC851965), RMC-6291 (NSC852671), Ro-3306 (NSC812927), sapanisertib (NSC764658), SN-38 (NSC673596), staurosporine (NSC755774), SY5609 (NSC837396), and tovorafenib (DAY101, NSC766906), were obtained from the National Cancer Institute (NCI) Developmental Therapeutics Program Chemical Repository. The FDA-approved anticancer drug set is available from the NCI Developmental Therapeutics Program. […] The stock solutions were prepared in dimethyl sulfoxide (DMSO, Sigma-Aldrich, St. Louis, MO, cat. D2650) at 800-fold the tested concentration and stored at -70 degrees C prior to their use. All drugs and investigational agents were tested over a range starting from a high concentration at or near the clinical Cmax and decreasing in half-log increments. If the clinical Cmax for an agent had not been determined, the highest concentration tested was 10 microM.
Cell Culture. All cells were maintained in an incubator at 37 degrees C and 5% CO2 with 95% humidity. The PDC lines were cultured according to standard operating procedures established by the NCI PDMR. All PDCs were thawed and cultured in Matrigel-coated flasks prepared with a working solution of 1X Ham's F-12 nutrient mix, without supplementation (Invitrogen, Waltham, MA, cat. 11765054), 100 U/mL penicillin-streptomycin (Invitrogen, cat. 15140122), and 2.5% Matrigel (Corning Inc., Corning, NY, cat. 354248) for the first three passages. The 362531-283-R-J2-PDC and 782815-120-R-J1-PDC lines were cultured in 6C/Colon 1B media, which includes advanced DMEM/F-12 (Thermo Fisher Scientific, cat. 12634028), 10 mM HEPES (Thermo Fisher Scientific, cat. 15630080), 1X GlutaMAX supplement (Thermo Fisher Scientific, cat. 35050061), 0.1 mg/mL primocin (InvivoGen, San Diego, CA, cat. ant-pm-2), 10% defined fetal bovine serum, heat inactivated (HyClone Laboratories Inc., Logan, UT, cat. SH30070.03HI), 50% L-WRN conditioned media (ATCC, cat. CRL-3276), 1.25 mM N-Acetyl-L-cysteine (Sigma-Aldrich, cat. A9165), 10 mM nicotinamide (Sigma-Aldrich, cat. N0636), 1X B-27 supplement (Thermo Fisher Scientific, cat. 17504044), 1X N-2 supplement (Thermo Fisher Scientific, cat. 17502048), 50 ng/mL human EGF (Thermo Fisher Scientific, cat. PHG0311), and 10 microM Y-27632 dihydrochloride (Tocris Bioscience, cat. 1254). The K12877-001-R-J1-PDC line was cultured in 6I media, which includes all 6C/Colon 1B media plus 10 ng/mL human FGF-10 (PeproTech, cat. 100-26), 1 ng/mL human FGF-2 (PeproTech, cat. 100-18B), 1 µM prostaglandin E2 (Tocris Bioscience, cat. 2296), […] hydrocortisone (Sigma-Aldrich, cat. H4001), and […] bovine insulin (Sigma-Aldrich, cat. I6634). The K86415-001-R-J1-PDC line was cultured in 6D media, which includes all 6C/Colon 1B media components minus the L-WRN conditioned media. The 485176-168-R4-J1-PDC was cultured in PANC media, which includes all 6C/Colon 1B media plus 100 ng/mL human FGF-10 (PeproTech, cat. 100-26), 500 nM SB-431542 (Selleckchem, cat. S1067), and 10 nM gastrin (Tocris Bioscience, cat. 3006). […]
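Also: spheroids exposed to agents for seven days before readout.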
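For viability, T/C in this document: luminescence viability as percent of DMSO vehicle control wells.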

- IC50 (second compound 0.0316 µM): > 1000 nM
- IC50 (second compound 0.1 µM): > 1000 nM
- IC50 (second compound 0.316 µM): > 1000 nM
- IC50 (second compound 1 µM): > 1000 nM
- IC50 (second compound 3.16 µM): > 1000 nM
- IC50 (second compound 10 µM): > 1000 nM
SMILES: C=CC(=O)Nc1cc(Nc2nccc(-c3cn(C)c4ccccc34)n2)c(OC)cc1N(C)CCN(C)C + C#Cc1c(F)ccc2cc(O)cc(-c3ncc4c(N5CC6CCC(C5)N6)nc(OCC56CCCN5CC(F)C6)nc4c3F)c12
- viability, T/C (second compound 0.0316 µM, first compound 0.00316 µM): 104%
- viability, T/C (second compound 0.0316 µM, first compound 0.01 µM): 91.5%
- viability, T/C (second compound 0.0316 µM, first compound 0.0316 µM): 98.2%
- viability, T/C (second compound 0.0316 µM, first compound 0.1 µM): 104%
- viability, T/C (second compound 0.0316 µM, first compound 0.316 µM): 95.6%
- viability, T/C (second compound 0.0316 µM, first compound 1 µM): 110%
- viability, T/C (second compound 0.1 µM, first compound 0.00316 µM): 96.6%
- viability, T/C (second compound 0.1 µM, first compound 0.01 µM): 90.4%
- viability, T/C (second compound 0.1 µM, first compound 0.0316 µM): 99.9%
- viability, T/C (second compound 0.1 µM, first compound 0.1 µM): 91.9%
- viability, T/C (second compound 0.1 µM, first compound 0.316 µM): 93.5%
- viability, T/C (second compound 0.1 µM, first compound 1 µM): 97.4%
- viability, T/C (second compound 0.316 µM, first compound 0.00316 µM): 88.1%
- viability, T/C (second compound 0.316 µM, first compound 0.01 µM): 85.3%
- viability, T/C (second compound 0.316 µM, first compound 0.0316 µM): 84.9%
- viability, T/C (second compound 0.316 µM, first compound 0.1 µM): 86.1%
- viability, T/C (second compound 0.316 µM, first compound 0.316 µM): 91.7%
- viability, T/C (second compound 0.316 µM, first compound 1 µM): 85.9%
- viability, T/C (second compound 1 µM, first compound 0.00316 µM): 98.5%
- viability, T/C (second compound 1 µM, first compound 0.01 µM): 100%
- viability, T/C (second compound 1 µM, first compound 0.0316 µM): 93%
- viability, T/C (second compound 1 µM, first compound 0.1 µM): 108%
- viability, T/C (second compound 1 µM, first compound 0.316 µM): 82.8%
- viability, T/C (second compound 1 µM, first compound 1 µM): 95.9%
- viability, T/C (second compound 3.16 µM, first compound 0.00316 µM): 88.2%
- viability, T/C (second compound 3.16 µM, first compound 0.01 µM): 87.8%
- viability, T/C (second compound 3.16 µM, first compound 0.0316 µM): 114%
- viability, T/C (second compound 3.16 µM, first compound 0.1 µM): 92.3%
- viability, T/C (second compound 3.16 µM, first compound 0.316 µM): 108%
- viability, T/C (second compound 3.16 µM, first compound 1 µM): 101%
- viability, T/C (second compound 10 µM, first compound 0.00316 µM): 103%
- viability, T/C (second compound 10 µM, first compound 0.01 µM): 94.9%
- viability, T/C (second compound 10 µM, first compound 0.0316 µM): 108%
- viability, T/C (second compound 10 µM, first compound 0.1 µM): 73%
- viability, T/C (second compound 10 µM, first compound 0.316 µM): 80.1%
- viability, T/C (second compound 10 µM, first compound 1 µM): 99.2%
